Laboratory results taken from patent publication US20110257208A1, “COMPOUNDS USEFUL AS FAAH MODULATORS AND USES THEREOF” (priority 2008, published 2011).

The molecules below were run against T1, hFAAH (Homo sapiens, UniProt O00519) (assay: Fluorimetric assay with hFAAH microsomes (enzymatic, fluorescence based)). Details: compound at 1 uM, AA-AMC substrate.
T1 construct: expressed in transfected cells; host or cells: HEK293-TRex (Invitrogen) stably transfected with hFAAH in the pcDNA5-Tet-off vector, or T84 human colon epithelial cells (endogenous hFAAH); used as a microsomal preparation
T1 sequence (O00519 1-579): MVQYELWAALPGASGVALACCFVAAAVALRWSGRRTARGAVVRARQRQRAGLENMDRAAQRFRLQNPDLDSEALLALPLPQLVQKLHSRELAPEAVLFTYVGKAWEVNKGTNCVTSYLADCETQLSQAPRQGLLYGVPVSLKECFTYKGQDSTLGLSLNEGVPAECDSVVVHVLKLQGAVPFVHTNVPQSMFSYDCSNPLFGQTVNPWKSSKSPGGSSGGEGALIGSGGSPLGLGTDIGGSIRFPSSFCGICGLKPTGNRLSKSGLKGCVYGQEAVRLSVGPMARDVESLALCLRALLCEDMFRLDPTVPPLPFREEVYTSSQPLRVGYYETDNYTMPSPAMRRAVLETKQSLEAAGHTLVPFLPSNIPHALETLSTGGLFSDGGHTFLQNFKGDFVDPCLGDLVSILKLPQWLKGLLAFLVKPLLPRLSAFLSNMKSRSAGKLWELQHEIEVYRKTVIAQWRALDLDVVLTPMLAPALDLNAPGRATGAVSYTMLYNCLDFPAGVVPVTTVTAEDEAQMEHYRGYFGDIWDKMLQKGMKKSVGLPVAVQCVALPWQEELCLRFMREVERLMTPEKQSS
Type: biochemical
Method in brief: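 Microsomes from T84 cells (endogenous hFAAH) or doxycycline-induced HEK293-TRex cells stably expressing hFAAH, 10 μg per well, in 50 mM HEPES pH 7.4, 1 mM EDTA, 1.4 mg/mL BSA with 2 μM AA-AMC. Kinetic fluorescence read (ex 355/em 460 nm, 275 cycles); activity as % inhibition, 7 concentrations in duplicate.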

inhibition at 1 µM [%] | SMILES
> 75 | CCc1nc(C)c(CN2Cc3ncnc(Nc4cnc5ccccc5c4)c3C2)s1 [Compound 97, [6-(2-Ethyl-4-methyl-thiazol-5-ylmethyl)-6,7-dihydro-5H-pyrrolo[3,4-d]pyrimidin-4-yl]-quinolin-3-yl-amine]
> 25 | CC(C)(C)CN1Cc2ncnc(Nc3cnc4ccccc4c3)c2C1 [Compound 11, [6-(2,2-Dimethyl-propyl)-6,7-dihydro-5H-pyrrolo[3,4-d]pyrimidin-4-yl]-quinolin-3-yl-amine]
> 25 | COC(=O)c1cc(S(=O)(=O)N2Cc3ncnc(Nc4cnc5ccccc5c4)c3C2)oc1C [Compound 62, 2-Methyl-5-[4-(quinolin-3-ylamino)-5,7-dihydro-pyrrolo[3,4-d]pyrimidine-6-sulfonyl]-furan-3-carboxylic acid methyl ester]
> 25 | O=S(=O)(c1ccccc1)N1Cc2ncnc(Nc3cnc4ccccc4c3)c2C1 [Compound 65, (6-Benzenesulfonyl-6,7-dihydro-5H-pyrrolo[3,4-d]pyrimidin-4-yl)-quinolin-3-yl-amine]
> 75 | CCC(C)CN1Cc2ncnc(Nc3cnc4ccccc4c3)c2C1 (stereo not drawn) [Compound 8, [6-(2-Methyl-butyl)-6,7-dihydro-5H-pyrrolo[3,4-d]pyrimidin-4-yl]-quinolin-3-yl-amine]
> 50 | Cc1ncc(CN2Cc3ncnc(Nc4cnc5ccccc5c4)c3C2)s1 [Compound 69, [6-(2-Methyl-thiazol-5-ylmethyl)-6,7-dihydro-5H-pyrrolo[3,4-d]pyrimidin-4-yl]-quinolin-3-yl-amine]
> 50 | c1ccc2ncc(Nc3ncnc4c3CN(Cc3ccnc5ccccc35)C4)cc2c1 [Compound 85, Quinolin-3-yl-(6-quinolin-4-ylmethyl-6,7-dihydro-5H-pyrrolo[3,4-d]pyrimidin-4-yl)-amine]
> 75 | c1ccc(CN2Cc3ncnc(Nc4cnc5ccccc5c4)c3C2)cc1 [Compound 1, (6-Benzyl-6,7-dihydro-5H-pyrrolo[3,4-d]pyrimidin-4-yl)-quinolin-3-yl-amine]
> 75 | FC(F)(F)c1cccc(CN2Cc3ncnc(Nc4cnc5ccccc5c4)c3C2)c1 [Compound 99, Quinolin-3-yl-[6-(3-trifluoromethyl-benzyl)-6,7-dihydro-5H-pyrrolo[3,4-d]pyrimidin-4-yl]-amine]
